This is an account of results in patent publication US4820715A, “Anti-emetic quinuclidinyl benzamides” (Bristol-Myers Company, priority 1987, dated 1989).

SMILES strings stand for the structures. pEC50, pIC50: −log10 of the molar value.

In experiment [1] the test system is Apomorphine-Induced Emesis. Nature of the experiment: Antagonism of Apomorphine-Induced Emesis in Dogs. It is filed as in vivo, beagle dogs. As to conditions: Canis lupus familiaris, sc; s.c. 30 minutes prior to apomorphine 0.3 mg/kg; dog; read-out: Antagonism of Apomorphine-Induced Emesis in the Dog ED50. How it is done:
Unfasted beagle dogs of both sexes were used as test subjects. Test compounds and apomorphine were each administered subcutaneously as aqueous solutions, with the test compound being administered 30 minutes prior to the administration of the apormorphine.
Apomorphine was administered at a dose of 0.3 mg/kg. […] All tests were run in at least two dogs.

The test system of experiment [2] is field-stimulated guinea pig ileum. Put plainly: Gastrokinetic Activity: contraction of field-stimulated guinea pig ileum preparations. Details: species or system guinea pig (Hartley). The conditions noted are these: Cavia porcellus; for EC30: effective concentration30, read-out: EC30 (95% C.L.); for pEC50: effective concentration50, read-out: EC50 (95% C.L.); for minimal effective concentration: read-out: Minimum Effective Concentration. How it is done:
This activity is considered to be correlated with gastrokinetic (prokinetic) activity in vivo, i.e. enhancement of gastric motility and gastric emptying.
Normal, male guinea pigs (Hartley; Charles River) weighing […] are sacrificed by cervical dislocation. The terminal portion of the ileum was removed after discarding a 10 cm segment nearest to the ileocecal junction. The strips, 3-4 cm in length, were mounted in a 20 ml organ bath containing Krebs physiological buffer solution. The buffer was bubbled with 95% O2 -5% CO2 and kept at 37° C. The resting tension was adjusted to 1.0 g, and the tissues were equilibrated without stimulation for 15 minutes. For electrical stimulation, a platinum wire (cathode) was threaded up through the lumen and another platinum wire (anode) was attached to the glass rod that suspended the muscle. Tissues were stimulated coaxially at 1.5 times the voltage necessary to produce maximum twitch height, with single pulses, 0.5 msec in duration, delivered once every 10 seconds. After the 15 minute equilibration period (without stimulation), the stimulator (Grass S88 Stimulator) was turned on and the tissues were allowed to stabilize for approximately 1 hour, or until the twitch height remained constant, with washes every 20 minutes.

Experiment [3] has as its target dopaminergic (D2) receptors (Rattus norvegicus, UniProt P61169). Nature of the experiment: biochemical. It is filed as binding. As to conditions: striatal rat brain homogenates, ^3H-spiperone, 37° C., 15 minutes; read-out: 3H-Spiperone Displacement IC50. How it is done:
Rats (150±10 g; Charles River) were decapitated, the corpus striatum dissected out and frozen on dry ice. The tissues were pooled and stored at -80° C. until used. Homogenates (Brinkmann Polytron) of the corpus striatum in cold HEPES.KOH buffer (final pH=7.4) were centrifuged at 39,000×G. The supernatant was discarded and the pellets were re-suspended in HEPES.KOH buffer and re-centrifuged as above.
Tests to determine the Inhibitory Concentration50 (IC50) of the compounds of Formula I and reference compounds versus ^3 H-spiperone were conducted as follows. Tubes containing either 100 μL of buffer mixture (for total binding), 100 μL of buffer mixture plus 100 μL of 10^-4 M D(+)-butaclamol (for blanks, i.e. non-specific binding), or 100 μL of buffer mixture containing 10^-7, 10^-6 or 10^-5 M test compound were prepared. To each were added 100 μL of a solution of ^3 H-spiperone (New England Nuclear) in buffer mixture (2000 c.p.m. in the incubation mixture) and 800 μL of the striatal tissue suspension. The tubes were then diluted to 1 mL with buffer mixture, giving a final concentration of 10^-8, 10^-7 or 10^-6 M test compound and approximately 100 pM ^3 H-spiperone. The samples were incubated at 37° C. for 15 minutes, filtered in vacuo on glass fiber filters and counted by liquid scintillation spectrometry. […] All samples were run in duplicate.

In a further experiment the test system is Cisplatin-Induced Emesis. Nature of the experiment: Antagonism of Cisplatin-Induced Emesis in the Ferret. Format: in vivo, Fitch ferrets. The conditions noted are these: Mustela putorius, iv, 4 h; 3 mg/kg, i.v. × 2; read-out: Antagonism of Cisplatin-Induced Emesis in the Ferret, % Protection. An excerpt:
The ventral and dorsal area of the neck is shaved and a 3 cm incision is made. The left jugular vein is exposed and ligated with a silk suture at the cephalic end. The indwelling catheter is constructed of Silastic tubing 18 cm in length (0.020 inch I.D.×0.037 inch O.D.) with a 2 cm polyethylene sleeve (0.045 inch I.D.×0.062 inch O.D.) filled with heparin (1000 units/ml) and sealed at the exposed end with a 23 gauge×1 inch needle crimped at both ends. A small cut is made in the jugular and the catheter inserted, allowing the free end to be delivered through a 13 gauge×5 cm trochar under the skin and attached to the nape of the neck with a silk suture. The ferrets are housed in individual cages and allowed 2-4 days recovery before testing. On the test day, the test compounds were administered i.v. […] The cisplatin solution was prepared by adding 70° C. physiological saline, stirring and sonicating until dissolved. The resulting solution (4 mg/ml) was maintained at 40° C. and administered i.v. ([…]) via the catheter. Following administration of cisplatin, the ferrets were observed continuously for four hours and emetic episodes recorded. Two or more emetic episodes within a one-minutes period was considered as a single episode. The ferrets were euthanized with T-61 i.v. at the termination of the experiment, and proper placement of the catheter was verified.

Where [4] appears, read: read-out: Average % Maximum Increase.

dopaminergic (D2) receptors, sequence (P61169 whole entry): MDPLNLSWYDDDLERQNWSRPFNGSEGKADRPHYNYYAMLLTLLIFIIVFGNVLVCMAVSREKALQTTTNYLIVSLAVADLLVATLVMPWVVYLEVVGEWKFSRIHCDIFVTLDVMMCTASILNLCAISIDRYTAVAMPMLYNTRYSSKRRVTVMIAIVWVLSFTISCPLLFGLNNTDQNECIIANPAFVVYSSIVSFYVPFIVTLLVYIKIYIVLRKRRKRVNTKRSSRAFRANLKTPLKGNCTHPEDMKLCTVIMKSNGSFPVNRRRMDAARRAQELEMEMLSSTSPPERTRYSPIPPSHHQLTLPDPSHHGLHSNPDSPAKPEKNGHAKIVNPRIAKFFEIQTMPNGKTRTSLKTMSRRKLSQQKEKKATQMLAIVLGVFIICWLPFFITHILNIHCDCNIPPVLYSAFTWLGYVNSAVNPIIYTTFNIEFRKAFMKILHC

What is called ED50 is the dose at which the effect has come halfway, by size or by number of responders. The term EC30 denotes the concentration at which the effect reaches the 30% level. What is called pEC50 is the EC50 on a negative log10 scale, so that one unit is a factor of ten. In general, pIC50 refers to the negative decadic logarithm of the IC50, by convention in mol/L. Consider `CCN(CC)CCNC(=O)c1cc(Cl)c(N)cc1OCCNC(C)=O` [Example 48], for which the ED50 in experiment [1] is greater than 3 mg/kg. Besides, the activation at 10 µM in experiment [2] (setting [4]) was determined as 47%. Besides, in experiment [2], the EC30 amounted to 2300 nM, the pEC50 was 4.89 and the minimal effective concentration was found to be 0.1 µM. For the same molecule, the pIC50 in experiment [3] was less than 6.00. The inhibition in vivo at 3 mg/kg in the experiment on Cisplatin-Induced Emesis was found to be 47%.

`CCN(CC)CCNC(=O)c1cc(Cl)c(N)cc1OCC(=O)N1CCCC1` [Example 59, 4-Amino-5-chloro-N-[2-(diethylamino)ethyl]-2-[2-(1-pyrrolidinyl)-2-oxoethoxy]benzamide]: the ED50 in experiment [1] is greater than 3 mg/kg. The activation at 10 µM in experiment [2] (setting [4]) came out at 38%. Also, in experiment [2], the EC30 came to 5200 nM, the pEC50 is 4.70 and the minimal effective concentration was found to be 1 µM. Further, the pIC50 in experiment [3] was less than 6.00. Besides, the inhibition in vivo at 3 mg/kg with Cisplatin-Induced Emesis is 66%.

Consider `CCN(CC)CCNC(=O)c1cc(Cl)c(N)cc1OCCCC[S+](C)[O-]` (stereo not drawn) [Example 58], for which, in experiment [1], the median effective dose (ED50) was greater than 3 mg/kg. Besides, the activation at 30 µM in experiment [2] (setting [4]) was found to be 72%. Further, in experiment [2], the EC30 came to 1500 nM, the pEC50 is 5.25 and the minimal effective concentration came to 0.3 µM. For the same molecule, the pIC50 in experiment [3] is less than 6.00. Besides, the inhibition in vivo at 3 mg/kg in the experiment on Cisplatin-Induced Emesis was 66%.

In the case of `CCN(CC)CCNC(=O)c1cc(Cl)c(N)cc1OCC[S+](C)[O-]` (stereo not drawn) [Example 21, 4-Amino-5-chloro-N-[2-(diethylamino)ethyl]-2-[2-(methylsulfinyl)ethoxy]benzamide], the ED50 in experiment [1] is greater than 3 mg/kg. The activation at 30 µM in experiment [2] (setting [4]) is 88%. For the same molecule, in experiment [2], the EC30 was 570 nM, the negative-log EC50 (pEC50) was 5.64 and the minimal effective concentration worked out at 0.1 µM. Moreover, the pIC50 in experiment [3] was less than 6.00. Besides, the inhibition in vivo at 3 mg/kg with Cisplatin-Induced Emesis stood at 49%.

For `CCN(CC)CCNC(=O)c1cc(Cl)c(N)cc1OCC(=O)NNC(C)=O` [Example 37, 4-Amino-5-chloro-N-[2-(diethylamino)ethyl]-2-[2-(2-acetylhydrazino)-2-oxoethoxy]benzamide Acetate], the ED50 in experiment [1] was greater than 3 mg/kg. For the same molecule, in experiment [2] (at 300 μM, read-out: Average % Maximum Increase), the activation at 300 µM was 83%. Moreover, in experiment [2], the EC30 stood at 720 nM and the pEC50 was 5.18. Moreover, the pIC50 in experiment [3] is less than 6.00. The inhibition in vivo at 3 mg/kg in the experiment with Cisplatin-Induced Emesis was found to be 57%.

`CCN(CC)CCNC(=O)c1cc(Cl)c(N)cc1OCC(=O)NC` [Example 40]: in experiment [1], the ED50 was greater than 3 mg/kg. Also, the activation at 10 µM in experiment [2] (setting [4]) stood at 56%. Also, in experiment [2], the EC30 came out at 900 nM, the pEC50 is 5.26 and the minimal effective concentration turned out to be 0.1 µM. Moreover, the negative logarithm of the IC50 (pIC50) in experiment [3] is less than 6.00. Further, the inhibition in vivo at 3 mg/kg in the experiment on Cisplatin-Induced Emesis was determined as 62%.

Consider `CCN(CC)CCNC(=O)c1cc(Cl)c(N)cc1OCC[S+]([O-])CC` (stereo not drawn) [Example 60], for which, in experiment [1], the ED50 was greater than 3 mg/kg. Moreover, the activation at 30 µM in experiment [2] (setting [4]) is 66%. In addition, in experiment [2], the EC30 amounted to 880 nM, the pEC50 is 5.32 and the minimal effective concentration was 0.1 µM. In experiment [3], the pIC50 was less than 6.00. In addition, the inhibition in vivo at 3 mg/kg in the experiment on Cisplatin-Induced Emesis came out at 52%.

For `CCN(CC)CCNC(=O)c1cc(Cl)c(N)cc1OCCCN` [Example 39, 4-Amino-2-(3-aminopropoxy)-5-chloro-N-[2-(diethylamino)ethyl]benzamide], the ED50 in experiment [1] is greater than 3 mg/kg. For the same molecule, the negative logarithm of the IC50 (pIC50) in experiment [3] was less than 6.00. Besides, the inhibition in vivo at 3 mg/kg with Cisplatin-Induced Emesis was 71%.

For the molecule `CCOC(=O)C=C(COc1cc(N)c(Cl)cc1C(=O)NCCN(CC)CC)OC` [Example 42, 4-Amino-5-chloro-N-[2-(diethylamino)ethyl]-2-(ethyl-3-methoxycroton-4-yl)oxybenzamide], in experiment [1], the ED50 is greater than 3 mg/kg. Also, the pIC50 in experiment [3] is less than 6.00. The inhibition in vivo at 3 mg/kg in the experiment on Cisplatin-Induced Emesis was found to be 95%.

Take `CCN(CC)CCNC(=O)c1cc(Cl)c(N)cc1OCC(N)=O` [Example 16, 4-Amino-2-(2-amino-2-oxoethoxy)-5-chloro-N-[2-(diethylamino)ethyl]benzamideAcetate Monohydrate]: in experiment [1], the ED50 was greater than 3 mg/kg. Further, the activation at 100 µM in experiment [2] (at 100 μM, read-out: Average % Maximum Increase) came out at 72%. Further, in experiment [2], the concentration for an effect of 30% (EC30) turned out to be 500 nM, the pEC50 was 5.43 and the minimal effective concentration stood at 0.03 µM. The pIC50 in experiment [3] is less than 6.00. The inhibition in vivo at 3 mg/kg in the experiment with Cisplatin-Induced Emesis came to 21%.

As for `CCN(CC)CCNC(=O)c1cc(Cl)c(N)cc1OCCOC(C)=O` [Example 57, 2-(2-Acetoxyethoxy)-4-amino-5-chloro-N-[2-(diethylamino)ethyl]-benzamide], the median effective dose (ED50) in experiment [1] was greater than 3 mg/kg. Also, in experiment [3], the pIC50 was less than 6.00. In the experiment with Cisplatin-Induced Emesis, the inhibition in vivo at 3 mg/kg is 66%.

Regarding `CCN(CC)CCNC(=O)c1cc(Cl)c(N)cc1OCCC[S+](C)[O-]` (stereo not drawn) [Example 50, 4-Amino-5-chloro-N-[2-(diethylamino)ethyl]-2-[3-(methylsulfinyl)propoxy]benzamide], in experiment [1], the ED50 is greater than 3 mg/kg. Moreover, in experiment [2] (setting [4]), the activation at 30 µM amounted to 45%. In experiment [2], the EC30 came out at 12000 nM, the pEC50 is 4.41 and the minimal effective concentration was determined as 1 µM. In experiment [3], the negative logarithm of the IC50 (pIC50) is less than 6.00. In addition, in the experiment on Cisplatin-Induced Emesis, the inhibition in vivo at 3 mg/kg is 62%.

In the case of `CCN(CC)CCNC(=O)c1cc(Cl)c(N)cc1OCC(=O)NN.O.O.O` [Example 36, 4-Amino-5-chloro-N-[2-(diethylamino)ethyl]-2-(2-hydrazino-2-oxoethoxy)benzamide Trihydrate], in experiment [1], the median effective dose (ED50) is greater than 3 mg/kg. For the same molecule, in experiment [2] (setting [4]), the activation at 10 µM was found to be 55%. Besides, in experiment [2], the EC30 was 500 nM, the pEC50 is 5.34 and the minimal effective concentration was determined as 0.1 µM. Further, in experiment [3], the pIC50 is less than 6.00. Besides, the inhibition in vivo at 3 mg/kg in the experiment on Cisplatin-Induced Emesis was 86%.

Take `CCN(CC)CCNC(=O)c1cc(Cl)c(N)cc1OCCCN1C(=O)c2ccccc2C1=O` [Example 38, 4-Amino-5-chloro-N-[2-(diethylamino)ethyl]-2-[3-(phthalimido)propoxy]benzamide]: the ED50 in experiment [1] was greater than 3 mg/kg. Moreover, the pIC50 in experiment [3] is less than 6.00. The inhibition in vivo at 3 mg/kg in the experiment with Cisplatin-Induced Emesis turned out to be 57%.

For the molecule `CCN(CC)CCNC(=O)c1cc(Cl)c(N)cc1OCC(C)=NOC` [Example 11, 4-Amino-5-chloro-N-[2-(diethylamino)ethyl]-2-[(2-methoxyimino)propan-1-yl]oxybenzamide], in experiment [1], the ED50 was greater than 3 mg/kg. Also, in experiment [3], the pIC50 was less than 6.00. Moreover, the inhibition in vivo at 3 mg/kg in the experiment with Cisplatin-Induced Emesis is 90%.

On to `C=CCC(C)(Oc1cc(N)c(Cl)cc1C(=O)NCCN(CC)CC)C(C)=O` (stereo not drawn) [Example 8, 4-Amino-5-chloro-N-[2-(diethylamino)ethyl]-2-[(3-methyl)-5-hexen-2-on-3-yl]oxybenzamide], for which the ED50 in experiment [1] was greater than 3 mg/kg. In addition, in experiment [3], the pIC50 was less than 6.00. The inhibition in vivo at 3 mg/kg with Cisplatin-Induced Emesis was found to be 95%.
